In patent publication US20250136576A1, “Heterocyclic Compounds and Uses Thereof” (ACEA Therapeutics, Inc., priority 2021, published 2025) one finds IC50 data, which are given here for 22 compounds.

pIC50: −log10 of the molar value. Read-outs that look alike come from different tables or passages of the source.

What is called pIC50 is the negative decadic logarithm of the IC50, by convention in mol/L.

Experiment [1] has as its system H1975 cells. The experiment can be described thus: Cell proliferation and growth inhibition assay (CCK-8) in H1975. The format is cell-based. Conditions: treated with test compounds for 72 hrs, CCK-8 viability, read-out: EGFR IC50 in H1975. How it is done:
MV-4-11 and H1975 cells were obtained from the American Type Culture Collection and KM12-luc cells were obtained from JCRB Cell Bank. All cell lines were maintained at 37° C. with 5% C02, in media supplemented with 10% fetal bovine serum and penicillin (100 units/mL) and streptomycin (100 μg/mL). MV-4-11 cells were maintained in Iscove's Modified Dubecco's Medium, H1975 cells were cultured with RPMI 1640 media, and KM12-luc cells were maintained in Dulbecco's Modification of Eagle's Medium. CCK-8 reagent was obtained from Yeasen.
Cell proliferation was assessed by CCK-8 assay (Yeasen) per the manufacturer's instructions. The MV-4-11 (AML), H1975, and KM12-luc cells were seeded at 30,000, 3,000 and 2,500 cells per well onto 96-well plates, and after a 24 h incubation, the cells were treated with test compounds for 72 hrs. Cell viability was assayed by incubating the cells with CCK-8 reagent for 1-4 hrs. Absorbance was measured at OD450 using the Beckman DTX880. The data was calculated using GraphPad Prism version 6.01. The IC50 values were fitted using a non-linear regression model with a sigmoidal dose response.

Experiment [2] deals with KM12-luc cells. The experiment can be described thus: Cell proliferation and growth inhibition assay (CCK-8) in KM12-luc. Conditions: KM12-luc cells, treated with test compounds for 72 hrs, CCK-8 viability, read-out: NTRK IC50 in KM12-luc. It counts as cell-based. A digest of the protocol:
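IC50 values were fitted by sigmoidal dose-response non-linear regression of CCK-8 OD450 absorbance after 1-4 hrs with reagent. Culture media were IMDM for MV-4-11, RPMI 1640 for H1975 and DMEM for KM12-luc, each with 10% FBS at 37 °C, 5% CO2.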

On to `CCC(=O)Nc1cccc(Nc2ncc(F)c(Nc3ccc(N4CCN(C(C)=O)CC4)cc3OC)n2)c1` [Compound 156, N-(3-((4-((4-(4-acetylpiperazin-1-yl)-2-methoxyphenyl)amino)-5-fluoropyrimidin-2-yl)amino)phenyl)propionamide], for which the pIC50 in experiment [1] (Homo sapiens, NCI-H1975, 72 h) is 5.55; in experiment [2] (KM12-Luc, 72 h), 6.43.
The like results for `CCN(CCN(C)C)c1cc(F)c(Nc2nc(-c3cn(C)c4ccccc34)c3cc[nH]c3n2)cc1NC(C)=O` [Compound 201, N-(2-((2-(dimethylamino)ethyl)(ethyl)amino)-4-fluoro-5-((4-(1-methyl-1H-indol-3-yl)-7H-pyrrolo[2,3-d]pyrimidin-2-yl)amino)phenyl)acetamide] were, in that order, 5.96 and 6.35.
The like results for `CCC(=O)Nc1cc(Nc2nc(-c3cn(C)c4ccccc34)c3cc[nH]c3n2)ccc1N(CC)CCN(C)C` [Compound 212b, N-(2-((2-(dimethylamino)ethyl)(ethyl)amino)-5-((4-(1-methyl-1H-indol-3-yl)-7H-pyrrolo[2,3-d]pyrimidin-2-yl)amino)phenyl)propionamide] were, in that order, 5.78 and 7.43.
For the compound `CC(=O)Nc1cc(Nc2nc(-c3c[nH]c4ccccc34)c3cc[nH]c3n2)cc(F)c1N(C)CCN(C)C` [Compound 248a, N-(5-((4-(1H-indol-3-yl)-7H-pyrrolo[2,3-d]pyrimidin-2-yl)amino)-2-((2-(dimethylamino)ethyl)(methyl)amino)-3-fluorophenyl)acetamide], the pIC50 is 6.35 in experiment [1] and 7.89 in experiment [2] (KM12-Luc, 72 h).
Consider `CC(=O)Nc1cc(Nc2nc(-c3c[nH]c4ccccc34)c3cc[nH]c3n2)cc(F)c1N(C)CCN(C)C` [Compound 248b, N-(5-((4-(1H-indol-3-yl)-7H-pyrrolo[2,3-d]pyrimidin-2-yl)amino)-2-((2-(dimethylamino)ethyl)(methyl)amino)-3-fluorophenyl)acetamide], for which the pIC50 in experiment [1] was 5.98; in experiment [2], 7.77.
With `CC(=O)Nc1cc(Nc2ncc(C(F)(F)F)c(-c3cn(C)c4ccccc34)n2)ccc1N(C)CCN(C)C` [Compound 296, N-(2-((2-(dimethylamino)ethyl)(methyl)amino)-5-((4-(1-methyl-1H-indol-3-yl)-5-(trifluoromethyl)pyrimidin-2-yl)amino)phenyl)acetamide], the pIC50 is 5.97 in experiment [1] (Homo sapiens, NCI-H1975, 72 h) and 7.97 in experiment [2].
On to `CCC(=O)Nc1cc(Nc2ncc(C(F)(F)F)c(-c3c[nH]c4ccccc34)n2)ccc1N(C)CCN(C)C` [Compound 298, N-(5-((4-(1H-indol-3-yl)-5-(trifluoromethyl)pyrimidin-2-yl)amino)-2-((2-(dimethylamino)ethyl)(methyl)amino)phenyl)propionamide], for which the pIC50 was 6.54 in experiment [1] (Homo sapiens, NCI-H1975, 72 h) and 7.36 in experiment [2] (KM12-Luc, 72 h).
The like results for `CC(=O)Nc1cc(Nc2ncc(C(F)(F)F)c(-c3c[nH]c4ccccc34)n2)ccc1NCCN(C)C` [Compound 303a, N-(5-((4-(1H-indol-3-yl)-5-(trifluoromethyl)pyrimidin-2-yl)amino)-2-((2-(dimethylamino)ethyl)amino)phenyl)acetamide] were, in that order, 6.96 and 7.72.
Regarding `CC(=O)Nc1cc(Nc2ncc(C(F)(F)F)c(-c3cn(C)c4ccccc34)n2)ccc1N(C)CCN(C)C` [Compound 305, N-(2-((2-(dimethylamino)ethyl)(methyl)amino)-5-((4-(1-methyl-1H-indol-3-yl)-5-(trifluoromethyl)pyrimidin-2-yl)amino)phenyl)acetamide], the pIC50 in experiment [1] was 6.19; in experiment [2], 7.54.
As to `CC(=O)Nc1cc(Nc2ncc(C(F)(F)F)c(-c3c[nH]c4cccc(F)c34)n2)ccc1N(C)CCN(C)C` [Compound 316, N-(2-((2-(dimethylamino)ethyl)(methyl)amino)-5-((4-(4-fluoro-1H-indol-3-yl)-5-(trifluoromethyl)pyrimidin-2-yl)amino)phenyl)acetamide], the pIC50 in experiment [1] (Homo sapiens, NCI-H1975, 72 h) was 6.32; in experiment [2] (KM12-Luc, 72 h), 7.67.
On to `CC(=O)Nc1cc(Nc2ncc(C(F)(F)F)c(-c3c[nH]c4c(C)cccc34)n2)c(F)cc1N(C)CCN(C)C` [Compound 362, N-(2-((2-(dimethylamino)ethyl)(methyl)amino)-4-fluoro-5-((4-(7-methyl-1H-indol-3-yl)-5-(trifluoromethyl)pyrimidin-2-yl)amino)phenyl)acetamide], for which the pIC50 was 7.73 in experiment [1] (Homo sapiens, NCI-H1975, 72 h) and 7.49 in experiment [2] (KM12-Luc, 72 h).
The like results for `CC(=O)Nc1cc(Nc2ncc(C(F)(F)F)c(-c3cn(C)c4c(C)cccc34)n2)ccc1N(C)CCN(C)C` [Compound 368, N-(5-((4-(1,7-dimethyl-1H-indol-3-yl)-5-(trifluoromethyl)pyrimidin-2-yl)amino)-2-((2-(dimethylamino)ethyl)(methyl)amino)phenyl)acetamide] were, in that order, 6.45 and 7.64.
Take `COc1cccc2c(-c3nc(Nc4cc(NC(C)=O)c(N(C)CCN(C)C)cc4F)ncc3C(F)(F)F)c[nH]c12` [Compound 378, N-(2-((2-(dimethylamino)ethyl)(methyl)amino)-4-fluoro-5-((4-(7-methoxy-1H-indol-3-yl)-5-(trifluoromethyl)pyrimidin-2-yl)amino)phenyl)acetamide]: the pIC50 in experiment [1] (Homo sapiens, NCI-H1975, 72 h) was 7.58; in experiment [2] (KM12-Luc, 72 h), 7.36.
On to `CC(=O)Nc1cc(Nc2ncc(Cl)c(-c3c[nH]c4ccccc34)n2)cc(F)c1N1CCC(N(C)C)C1` (centres unmarked) [Compound 392, N-(5-((5-chloro-4-(1H-indol-3-yl)pyrimidin-2-yl)amino)-2-(3-(dimethylamino)pyrrolidin-1-yl)-3-fluorophenyl)acetamide], for which the pIC50 in experiment [1] (Homo sapiens, NCI-H1975, 72 h) is 6.06; in experiment [2] (KM12-Luc, 72 h) it was 7.74.
The like results for `CC(=O)Nc1cc(Nc2ncc(Cl)c(-c3cn(C)c4ccccc34)n2)ccc1NCCN(C)C` [Compound 400a, N-(5-((5-chloro-4-(1-methyl-1H-indol-3-yl)pyrimidin-2-yl)amino)-2-((2-(dimethylamino)ethyl)amino)phenyl)acetamide] were, in that order, 6.00 and 7.38.
In the case of `CC(=O)Nc1cc(Nc2ncc(Cl)c(-c3c[nH]c4c(F)cccc34)n2)ccc1N(C)CCN(C)C` [Compound 412, N-(5-((5-chloro-4-(7-fluoro-1H-indol-3-yl)pyrimidin-2-yl)amino)-2-((2-(dimethylamino)ethyl)(methyl)amino)phenyl)acetamide], the pIC50 in experiment [1] (Homo sapiens, NCI-H1975, 72 h) is 6.42; in experiment [2] (KM12-Luc, 72 h), 8.08.
Turning to `CC(=O)Nc1cc(Nc2ncc(Cl)c(-c3c[nH]c4c(C)cccc34)n2)ccc1N(C)CCN(C)C` [Compound 423, N-(5-((5-chloro-4-(7-methyl-1H-indol-3-yl)pyrimidin-2-yl)amino)-2-((2-(dimethylamino)ethyl)(methyl)amino)phenyl)acetamide], the pIC50 is 7.18 in experiment [1] (Homo sapiens, NCI-H1975, 72 h) and 8.33 in experiment [2] (KM12-Luc, 72 h).
The like results for `COc1cccc2c(-c3nc(Nc4ccc(N(C)CCN(C)C)c(NC(C)=O)c4)ncc3Cl)c[nH]c12` [Compound 433, N-(5-(5-chloro-4-(7-methoxy-1H-indol-3-yl)pyrimidin-2-ylamino)-2-((2-(dimethylamino)ethyl)(methyl)amino)phenyl)acetamide] were, in that order, 6.30 and 7.86.
The like results for `CCN(CCN(C)C)c1ccc(Nc2ncc(Cl)c(-c3c[nH]c4ccccc34)n2)cc1NC(C)=O` [Compound 442, N-(5-((5-chloro-4-(1H-indol-3-yl)pyrimidin-2-yl)amino)-2-((2-(dimethylamino)ethyl)(ethyl)amino)phenyl)acetamide] were, in that order, 6.48 and 8.19.
The like results for `CC(=O)Nc1cc(Nc2ncc(C(F)(F)F)c(-c3cn(C)c4c(C)cccc34)n2)ccc1N1CC[C@@H](N(C)C)C1` [Compound R-373, (R)—N-(5-((4-(1,7-dimethyl-1H-indol-3-yl)-5-(trifluoromethyl)pyrimidin-2-yl)amino)-2-(3-(dimethylamino)pyrrolidin-1-yl)phenyl)acetamide] were, in that order, 6.03 and 7.64.
Regarding `COc1cccc2c(-c3nc(Nc4ccc(N5CC[C@@H](N(C)C)C5)c(NC(C)=O)c4)ncc3C(F)(F)F)cn(C)c12` [Compound R-389, (R)—N-(2-(3-(dimethylamino)pyrrolidin-1-yl)-5-((4-(7-methoxy-1-methyl-1H-indol-3-yl)-5-(trifluoromethyl)pyrimidin-2-yl)amino)phenyl)acetamide], the pIC50 in experiment [1] (Homo sapiens, NCI-H1975, 72 h) is 6.03; in experiment [2] (KM12-Luc, 72 h), 7.61.
The like results for `COc1cccc2c(-c3nc(Nc4ccc(N5CC[C@@H](N(C)C)C5)c(NC(C)=O)c4)ncc3Cl)cn(C)c12` [Compound R-435, (R)—N-(5-(5-chloro-4-(7-methoxy-1-methyl-1H-indol-3-yl)pyrimidin-2-ylamino)-2-(3-(dimethylamino)pyrrolidin-1-yl)phenyl)acetamide] were, in that order, 5.98 and 7.50.
